{
  "source": "patent US10787481B2",
  "about": "“Sugar-dipeptide conjugates as flavor molecules” (NESTEC S.A., priority 2015, dated 2020)",
  "key": {"[1]": {"tested_on": "sensory panel", "assay": "Taste threshold concentration in model broth (sensory panel, triangle test)", "assay_type": "in vivo, human", "details": "versus β-alanyl-L-glycine", "description": "The sensory tests were performed in a sensory panel room at 20-25° C. To avoid a retro-nasal aroma or taste impression, nose clips were used. The sensory panel consisted of 8 to 14 trained persons. The panel was trained to evaluate the taste of aqueous solutions (1 mL each) of the following standard taste compounds by using a triangle test: saccharose (50 mmol/L) and L-alanine (15 mmol/L), respectively, for sweet taste; lactic acid (20 mmol/L) for sour taste; NaCl (12 mmol/L) for salty taste; caffeine (1 mmol/L) and quinine hydrochloride (0.05 mmol/L), respectively, for bitter taste; sodium glutamate (8 mmol/L, pH 5.7) for umami taste; and tannin (0.05%) for astringency. The “white meaty” oral sensations was assessed in a model broth solution prepared from monosodium glutamate monohydrate (1.9 g/L), yeast extract (2.1 g/L), maltodextrin (6.375 g/L) and sodium chloride (2.9 g/L) in bottled water (pH 5.9)."}, "[2]": {"tested_on": "sensory panel", "details": "chicken soup with 1 g monosodium glutamate in 500 mL; compound at 2 g/L; 12 panelists", "description": "Chicken soups were prepared by dissolving 6 g chicken base powder (detailed recipe shown in Table 1) and 1 g monosodium glutamate in 500 mL hot water.\nThe sensory evaluation was carried out by 12 panelists, previously screened for their sensory abilities."}, "[3]": {"tested_on": "sensory panel", "details": "tomato soup; compound at 2 g/L"}},
  "note": "Where two headings read alike, the source gives them in different places.",
  "data": [
    {"smiles": "O=C(O)CNC(=O)CCNCC(=O)[C@@H](O)[C@H](O)[C@H](O)CO", "values": [
      {"measurement": "lowering of the taste threshold molar concentration by a factor", "setting": "[1]", "value": "about 4"},
      {"measurement": "sensory difference described by panel", "setting": "[2]", "value": "increased the spicy, savory and meaty flavours"},
      {"measurement": "sensory difference described by panel", "setting": "[3]", "value": "increased the savory, fatty and spicy notes"}
    ]}
  ]
}
